The values that follow come from patent US11135153B2, “High penetration composition and uses thereof” (Techfields Pharma Co., Ltd., priority 2006, dated 2021).

Molecules are shown by their SMILES. Where two headings read alike, the source gives them in different places. Bounds are passed on as bounds.

Data set [1] can be described thus: Plasma levels of parent compounds after transdermal administration to hairless mice. The data set is classed as in vivo. The following applies: transdermal on 10 cm^2 back skin; for Plasma concentration of the parent compound (peak plasma level): 20% solution or suspension in 1 ml 70% ethanol; for t (time to peak plasma level of the parent compound): 20% in 1 ml 70% ethanol. As to the method: Test compounds (20% solution or suspension of HPPs or parent drugs in 1 ml of 70% ethanol) were administered transdermally to 10 cm^2 skin on the backs of hairless mice. The plasma levels of the parent compounds were determined by HPLC.

The nature of a further data set: in vivo. The conditions noted are these: mouse.
A short description of data set [2]: In vitro penetration rate through human skin in modified Franz cells. The data set is classed as in vitro ADME. The conditions noted are these: isolated human skin 360-400 μm, 2 mL, 20% in 0.2 M phosphate buffer pH 7.4. As to the method: The penetration rates of HPPs of 4-aminophenol derivatives and their parent drugs through human skin were measured in vitro by modified Franz cells. […] The human skin tissue (360-400 μm thick) that separated the top and the receptor chambers was isolated from the anterior or posterior thigh areas.
The amount of the tested compound penetrating the skin was determined by high-performance liquid chromatography (HPLC) method.
The lowest detectable apparent flux values in this method was 1 μg/cm^2/h, the parent drugs tested (e.g. acetaminophen and acetaminosalol) had […], and the corresponding HPPs had higher apparent flux value.

Data set [3] is described as follows: Aqueous solubility of HPPs and parent drugs. The data set is classed as physicochemical.
A further data set concerns mice. The experiment in a line: Analgesic activity, acetic acid writhing inhibition. Format: in vivo. The following applies: 100 mg/kg transdermally, versus control group. As to the method:
Acetic acid solution was administered intraperitoneally to a group of mice (6 mice every group) 120 minutes after a test compound was administered to the mice at the dosage specified in the tables below. The prodrug compounds were administered either transdermally or orally. N-acetyl-p-aminophenyl dimethylaminobutyrate.HCl (100 mg/kg, B) and 4-acetamidophenyl 2((4-(dimethylamino)butanoyl)oxy)benzoate.HCl, (100 mg/kg, C) were administered transdermally. The number of writhings that occurred when mice were administered the acetic acid solution were counted, and the rate of inhibition based on the control group which was not pretreated with any test compounds was calculated. […] Group A was the control group.

The subject of the next data set is rats. The experiment in a line: Antipyretic activity in rats given E. coli suspension as pyrogen. The following applies: 100 mg/kg transdermally. The data set is classed as in vivo. As to the method:
Rats received a sterilized E. coli suspension as a pyrogen. The control group was group A. 2 hours later, N-acetyl-p-aminophenyl dimethylaminobutyrate.HCl (100 mg/kg, B) and 4-acetamidophenyl 2((4-(dimethylamino)butanoyl)oxy)benzoate.HCl, (100 mg/kg, C) were administered transdermally respectively. The body temperature of rats was taken at 90 min. intervals before and after the administration of the test compounds.

Data set [4] is described as follows: In vivo transportation: amounts in organs and tissue of rats after application to back skin. The conditions noted are these: 6 hours after 20% in 1 mL 50% ethanol on 10 cm^2 back skin. As to the method: N-Acetyl-p-aminophenyl dimethylaminobutyrate.HCl (20% in 1 mL of 50% ethanol) was applied to about 10 cm^2 skin on the backs of rats (˜200 g). After 6 hours, the rats were terminated, and methanol (5 mL) was added to 1 g of tissue on the back of rat (under the skin), 1 ml of blood, 1 g of liver, 1 g of kidney, and 1 g of brain respectively (the tissue, liver, kidney or brain was washed with pH 7.2 buffer for three times) and the mixtures were homogenized. The samples were then centrifuged for 5 min and analyzed using HPLC.

[5] abbreviates: water (aqueous), read-out: Solubility.

For the molecule `CC(=O)Nc1ccc(O)cc1` [acetaminophen, N-Acetyl-p-aminophenol, reference compound], the “Plasma concentration of the parent compound (peak plasma level)” value (“Plasma concentration” for short) in data set [1] turned out to be 0.1 mg/L. The “t (time to peak plasma level of the parent compound)” value in data set [1] (parent compound) is given as around 5 h. The molecule further registered a 50% lethal dose (LD50) in the data set “in vivo” of 340 mg/kg. In addition, in data set [2], the “In vitro Penetration rate (apparent flux)” value (shortened to “In vitro Penetration rate”) was 10 μg/cm^2/h. The solubility in data set [3] (setting [5]) was below 0.2 mg/mL.

For the molecule `CC(=O)Nc1ccc(OC(=O)c2ccccc2O)cc1` [acetaminosalol, 4-acetamidophenyl salicylate, reference compound], the “Plasma concentration” value in data set [1] is 0.1 mg/L. In data set [1] (parent compound), the “t (time to peak plasma level of the parent compound)” value was around 5 h. Besides, the LD50 in the data set “in vivo” was 550 mg/kg. In addition, the “In vitro Penetration rate” value in data set [2] is recorded as 10 μg/cm^2/h. Also, the solubility in data set [3] (setting [5]) is below 0.1 mg/mL.

Regarding `CC(=O)Nc1ccc(OC(=O)CCCN(C)C)cc1.Cl` [N-Acetyl-p-Aminophenyl Dimethylaminobutyrate.HCl], in the data set with mice, the “rate of writhings inhibition” value came out at 55%. Moreover, the “Plasma concentration” value in data set [1] was 30.0 mg/L. Further, the “t (time to peak plasma level of the parent compound)” value in data set [1] (prodrug compound) is around 0.833 h. Besides, in data set [2], the “In vitro Penetration rate” value is listed as 1500 μg/cm^2/h. For the same molecule, in the data set on rats, the “body temperature, t = 0 min.” value is listed as 37.32 ± 0.06; the “body temperature, t = 90 min.” value was 36.61 ± 0.05; the “body temperature, t = 180 min.” value worked out at 36.50 ± 0.08; the “body temperature, t = 270 min.” value is recorded as 36.50 ± 0.07. In addition, in data set [4], the “N-acetyl-p-aminophenyl dimethylaminobutyrate detected in blood” value came to 10 ± 4 µg/g, the “N-acetyl-p-aminophenyl dimethylaminobutyrate detected in brain” value was found to be 3 ± 3 µg/g, the “N-acetyl-p-aminophenyl dimethylaminobutyrate detected in kidney” value was determined as 6 ± 4 µg/g and the “N-acetyl-p-aminophenyl dimethylaminobutyrate detected in liver” value came to 7 ± 4 µg/g. In data set [4], the “N-acetyl-p-aminophenyl dimethylaminobutyrate detected in under-skin tissue” value turned out to be 15 ± 8 µg/g, the “acetaminophen detected in blood” value is 30 ± 8 µg/g, the “acetaminophen detected in brain” value came out at 10 ± 8 µg/g and the “acetaminophen detected in kidney” value was determined as 20 ± 10 µg/g. Moreover, in data set [4], the “acetaminophen detected in liver” value was 20 ± 10 µg/g and the “acetaminophen detected in under-skin tissue” value stood at 60 ± 10 µg/g. Also, the solubility in data set [3] was above 400 mg/mL.

Consider `CC(=O)Nc1ccc(OC(=O)c2ccccc2OC(=O)CCCN(C)C)cc1.Cl` [4-acetamidophenyl 2((4-(dimethylamino)butanoyl)oxy)benzoate.HCl], for which the “rate of writhings inhibition” value in the data set on mice is recorded as 55%. The “Plasma concentration” value in data set [1] was 30.0 mg/L. For the same molecule, the “t (time to peak plasma level of the parent compound)” value in data set [1] (prodrug compound) is around 0.833 h. Besides, in data set [2], the “In vitro Penetration rate” value is listed as 1800 μg/cm^2/h. In the data set on rats, the “body temperature, t = 0 min.” value is listed as 37.27 ± 0.06; the “body temperature, t = 90 min.” value is 36.63 ± 0.05; the “body temperature, t = 180 min.” value was found to be 36.52 ± 0.08; the “body temperature, t = 270 min.” value stood at 36.50 ± 0.07. In addition, in data set [3], the solubility was above 400 mg/mL.

The term LD50 denotes the dose at which mortality reaches 50%. Lower therefore signals a more toxic substance. The term solubility denotes how much of the substance goes into solution per volume.
